Data published in patent publication US20220000110A1, “COMPOSITIONS COMPRISING PYRIDINE CARBOXYLATE HERBICIDES AND CELLULOSE BIOSYNTHESIS INHIBITOR HERBICIDES” (priority 2018, published 2022).

Assays:
Assay in all cases: Greenhouse postemergence herbicidal effect, visual injury after 20-22 d
Assay type in all cases: in vivo
[1] = tested on: Amaranthus retroflexus (pigweed); settings: AMARE
Excerpt: (§1) Greenhouse Trial Methodology—Evaluation of Postemergence Herbicidal Effect
(§2) Seeds of the desired test plant species were planted in a 90:10% v/v (volume/volume) mixture of PRO-MIX® BX (Premier Tech Horticulture, Quakertown, Pa., USA) and PROFILE® GREENS GRADE™ (Profile Products LLC, Buffalo Grove, Ill., USA) planting mixture, which typically has a pH of 5.2 to 6.2 and an organic matter content of at least 50 percent, in plastic pots with a surface area of 103.2 square centimeters (cm^2). In some aspects, to help ensure good germination and healthy plants, a fungicide treatment and/or other chemical or physical treatment was applied. The plants were grown for 7-36 days (d) in a greenhouse with an approximate 14-hour (h) photoperiod which was maintained at about 23° C. during the day and 22° C. during the night. Nutrients and water were added on a regular basis and supplemental lighting was provided with overhead metal halide 1000-Watt lamps as necessary. The plants were employed for testing when they reached the second or third true leaf stage.
(§3) Emulsifiable concentrates of each of each pyridine carboxylate herbicide (Compound A or Compound B) were prepared at 100 grams acid equivalent per liter (g ae/L). The emulsifiable concentrates also included a safener, at 120 grams active ingredient per liter (g ai/L). An aliquot of each emulsifiable concentrate was placed in a 25 mL glass vial and diluted with an aqueous mixture of 1.25% (v/v) ACTIROB® B esterified rapeseed oil (Bayer Crop Science, Research Triangle Park, N.C., USA) or MSO® Concentrate with LECI-TECH® methylated soybean oil (Loveland Products, Loveland, Colo., USA) to obtain concentrated stock solutions at the highest application rate for each herbicide, based upon a 12 milliliter (mL) application volume at a rate of 187 liters per hectare (L/ha). The concentrated stock solutions were further diluted with an aqueous mixture of 1.25% v/v ACTIROB® B or MSO® Concentrate with LECI-TECH® to obtain stock solutions at reduced application rates for each herbicide. Spray solutions of the herbicide combinations (Compound A or Compound B plus the CBI herbicide) were prepared by adding weighed amounts or aliquots of the CBI herbicide to the stock solutions of Compound A or Compound B to form 12-mL spray solutions in two-way combinations.
(§4) The spray solutions were applied to the plant material with an overhead Mandel track sprayer equipped with 8002E nozzles calibrated to deliver 187 L/ha over an application area of 0.503 square meters (m^2) at a spray height of 18 inches (43 centimeters (cm)) above the average plant canopy. Control plants were sprayed in the same manner with the solvent blank. All pyridine carboxylate herbicide (component a) application rates are given as “g ae/ha” and all CBI herbicide (component b) application rates are given as “g ai/ha.”
(§5) The treated plants and control plants were placed in a greenhouse as described above and watered by sub-irrigation to prevent wash-off of the test compounds. After 20-22 d, the condition of the test plants as compared with that of the control plants was determined visually and scored on a scale of 0 to 100 percent where 0 corresponds to no injury and 100 corresponds to complete kill.

[2] = tested on: Ipomoea hederacea (ivyleaf morningglory); settings: IPOHE
Excerpt: as §1, §2, §3, §4, §5

[3] = tested on: Chenopodium album L. (common lambsquarters); settings: CHEAL
Excerpt: as §1, §2, §3, §4, §5

Glycine max (soybean) = settings: Table 1, GLXMA
Excerpt: as §1, §2, §3, §4, §5

[4] = tested on: Cyperus esculentus (nutsedge); settings: Table 1, CYPES
Excerpt: as §1, §2, §3, §4, §5

[5] = tested on: Lolium multiflorum (Italian rye grass); settings: Table 2, LOLMU
Excerpt: as §1, §2, §3, §4, §5

[6] = tested on: Salsola kali (Russian thistle); settings: SASKR
Excerpt: as §1, §2, §3, §4, §5

[7] = tested on: Euphorbia heterophylla (poinsettia); settings: Table 1, EPHHL
Excerpt: as §1, §2, §3, §4, §5

[8] = tested on: Polygonum convolvulus (wild buckwheat); settings: POLCO
Excerpt: as §1, §2, §3, §4, §5

[9] = tested on: Abutilon theophrasti (velvetleaf); settings: ABUTH
Excerpt: as §1, §2, §3, §4, §5

[10] = tested on: Matricaria chamomilla (wild chamomile); settings: MATCH
Excerpt: as §1, §2, §3, §4, §5

[11] = tested on: Sorghum vulgare (grain sorghum); settings: Table 1, SORVU
Excerpt: as §1, §2, §3, §4, §5

SMILES: N#CCOC(=O)c1nc(-c2ccc3cc[nH]c3c2F)c(F)c(N)c1Cl [Compound A, cyanomethyl 4-amino-3-chloro-5-fluoro-6-(7-fluoro-1H-indol-6-yl)pyridine-2-carboxylate]
- Obs % visual injury ([1]; Table 1, Compound A 7.5 g/ha): 88%
- Obs % visual injury ([1]; Table 1, Compound A 10 g/ha): 88%
- Obs % visual injury ([1]; Table 3, Compound A 7.5 g/ha): 78%
- Obs % visual injury ([1]; Table 3, Compound A 10 g/ha): 78%
- Obs % visual injury ([1]; Table 3, Compound A 15 g/ha): 83%
- Obs % visual injury ([1]; Table 4, Compound A 7.5 g/ha): 78%
- Obs % visual injury ([1]; Table 4, Compound A 10 g/ha): 78%
- Obs % visual injury ([1]; Table 4, Compound A 15 g/ha): 83%
- Obs % visual injury ([2]; Table 1, Compound A 7.5 g/ha): 20%
- Obs % visual injury ([2]; Table 1, Compound A 10 g/ha): 25%
- Obs % visual injury ([2]; Table 2, Compound A 7.5 g/ha): 3%
- Obs % visual injury ([2]; Table 2, Compound A 10 g/ha): 8%
- Obs % visual injury ([3]; Table 1, Compound A 7.5 g/ha): 98%
- Obs % visual injury ([3]; Table 1, Compound A 10 g/ha): 93%
- Obs % visual injury ([3]; Table 3, Compound A 7.5 g/ha): 70%
- Obs % visual injury ([3]; Table 3, Compound A 10 g/ha): 78%
- Obs % visual injury ([3]; Table 3, Compound A 15 g/ha): 83%
- Obs % visual injury ([3]; Table 4, Compound A 7.5 g/ha): 70%
- Obs % visual injury ([3]; Table 4, Compound A 10 g/ha): 78%
- Obs % visual injury ([3]; Table 4, Compound A 15 g/ha): 83%
- Obs % visual injury (Glycine max (soybean); Compound A 7.5 g/ha): 80%
- Obs % visual injury (Glycine max (soybean); Compound A 10 g/ha): 90%
- Obs % visual injury ([4]; Compound A 7.5 g/ha): 30%
- Obs % visual injury ([4]; Compound A 10 g/ha): 8%
- Obs % visual injury ([5]; Compound A 7.5 g/ha): 0%
- Obs % visual injury ([5]; Compound A 10 g/ha): 0%
- Obs % visual injury ([6]; Table 3, Compound A 7.5 g/ha): 55%
- Obs % visual injury ([6]; Table 3, Compound A 10 g/ha): 58%
- Obs % visual injury ([6]; Table 3, Compound A 15 g/ha): 65%
- Obs % visual injury ([6]; Table 4, Compound A 7.5 g/ha): 55%
- Obs % visual injury ([6]; Table 4, Compound A 10 g/ha): 58%
- Obs % visual injury ([6]; Table 4, Compound A 15 g/ha): 65%
- Obs % visual injury ([7]; Compound A 7.5 g/ha): 97%
- Obs % visual injury ([7]; Compound A 10 g/ha): 97%
- Obs % visual injury ([8]; Table 1, Compound A 7.5 g/ha): 83%
- Obs % visual injury ([8]; Table 1, Compound A 10 g/ha): 93%
- Obs % visual injury ([8]; Table 2, Compound A 7.5 g/ha): 75%
- Obs % visual injury ([8]; Table 2, Compound A 10 g/ha): 70%
- Obs % visual injury ([8]; Table 3, Compound A 7.5 g/ha): 63%
- Obs % visual injury ([8]; Table 3, Compound A 10 g/ha): 60%
- Obs % visual injury ([8]; Table 3, Compound A 15 g/ha): 63%
- Obs % visual injury ([8]; Table 4, Compound A 7.5 g/ha): 63%
- Obs % visual injury ([8]; Table 4, Compound A 10 g/ha): 60%
- Obs % visual injury ([8]; Table 4, Compound A 15 g/ha): 63%
- Obs % visual injury ([9]; Table 1, Compound A 7.5 g/ha): 68%
- Obs % visual injury ([9]; Table 1, Compound A 10 g/ha): 80%
- Obs % visual injury ([9]; Table 2, Compound A 7.5 g/ha): 68%
- Obs % visual injury ([9]; Table 2, Compound A 10 g/ha): 78%
- Obs % visual injury ([10]; Table 3, Compound A 7.5 g/ha): 8%
- Obs % visual injury ([10]; Table 3, Compound A 10 g/ha): 15%
- Obs % visual injury ([10]; Table 3, Compound A 15 g/ha): 10%
- Obs % visual injury ([10]; Table 4, Compound A 7.5 g/ha): 8%
- Obs % visual injury ([10]; Table 4, Compound A 10 g/ha): 15%
- Obs % visual injury ([10]; Table 4, Compound A 15 g/ha): 10%
- Obs % visual injury ([11]; Compound A 7.5 g/ha): 0%
- Obs % visual injury ([11]; Compound A 10 g/ha): 0%
